Results reported in PMC5435703 (Scientific Reports, 2017).
Values after ≈ are worked out from the molar mass of the structure shown. Read-outs that look alike come from different tables or passages of the source. Marks after values point to notes of the source that are not given here.

What was measured:
MRSA BAA-1707 [1] = assay: MIC broth microdilution assay; format: cell-based, Staphylococcus aureus; conditions: for MIC: Staphylococcus aureus
MRSA BAA-44 = assay: MIC broth microdilution assay; format: cell-based; conditions: Staphylococcus aureus
MRSA-1 = assay: MIC broth microdilution assay; format: cell-based, Staphylococcus aureus; conditions: for MIC: Staphylococcus aureus, MRSA
MRSE 35984 [2] = assay: MIC broth microdilution assay; format: cell-based, Staphylococcus epidermidis
VRE 700221 [3] = assay: MIC broth microdilution assay; format: cell-based, Enterococcus faecium; conditions: Enterococcus, VRE
MtB H37Ra = assay: MIC assay for Mycobacterium tuberculosis; format: cell-based; conditions: 168 h, seven days
[4] = LDH release assay for HeLa cytotoxicity; format: cell-based; conditions: human, HeLa cells; LDH release, 24 hours; tested at 25, 50 and 100 µM; read-out: HeLa Cytotox. IC50
MRSA BAA-1707 [5] = assay: MIC assay with metal(II) cation co-treatment; format: cell-based, Staphylococcus aureus
UV-Vis metal(II) binding = format: physicochemical; conditions: UV-Vis kinetics, compared to HP 1
Description: The rates of halogenated phenazine-copper(II) complex formation were independently evaluated via UV-Vis spectrometry following addition of 0.5 equivalents copper(II) sulfate to stirring solutions of HP (10 mM, 4 mL) in dimethyl sulfoxide. Spectral scanning was performed from 200 to 800 nm in 2 nm increments. The disappearance of HPs 1, 17 and 22 was observed over the indicated time points. The halogenated phenazine-copper(II) complex formation yielded a loss in absorbance due to precipitation.

MRSA BAA-1707 [6] = assay: Calgary Biofilm Device (CBD) MBC/MBEC assay; format: cell-based, Staphylococcus aureus
VRE 700221 [7] = assay: Calgary Biofilm Device (CBD) MBC/MBEC assay; format: cell-based, Enterococcus faecium; conditions: CBD
four MRSA isolates = assay: MIC assays, panel of four MRSA isolates; format: cell-based; conditions: Staphylococcus aureus, range over isolates, read-out: MIC against a panel of four MRSA isolates
[8] = Hemolysis assay with red blood cells; conditions: human, pH 7.2
MRSA-2 = assay: MIC broth microdilution assay; format: cell-based, Staphylococcus aureus; conditions: Table 1, read-out: MIC MRSA-2
S. epi 12228 = assay: MIC broth microdilution assay; format: cell-based, Staphylococcus epidermidis; conditions: Staphylococcus epidermidis, 12228; Table 1; read-out: MIC S. epi 12228
S. epidermidis = assay: MIC assays, S. epidermidis strains; format: cell-based; conditions: Staphylococcus epidermidis; range over strains
MRSA-1707 biofilms = assay: Live/Dead staining (fluorescence microscopy) of biofilms; conditions: 0.1, 1 and 5 µM, 24 hours
Description: A mid-log culture of MRSA BAA-1707 was diluted 1:1,000-fold and 500 µL was transferred to each compartment of a 4 compartment CELLview dish (Greiner Bio-One 627871). The dish was then incubated for 24 hours at 37 °C. After this time, the cultures were removed and the plate was washed with 0.9% saline. The dish was then treated with the compounds in fresh media at various concentrations. DMSO was used as our negative control in this assay. The dish was incubated with the compound for 24 hours at 37 °C. After this time, the cultures were removed and the dish was washed with 0.9% saline for 2 minutes. Saline was then removed and 500 µL of the stain (Live/Dead BacLight Viability Kit, Invitrogen) were added for 15 minutes and left in the dark. After this time, the stain was removed and the dish was washed twice with 0.9% saline. Then the dish was fixed with 500 µL 4% paraformaldehyde in PBS for 30 minutes. Images of remaining MRSA biofilms were then taken with a fluorescence microscope. All data were analyzed using ImageJ software from three independent experiments.
E.) Live / Dead staining (Fluorescence Microscopy) of MRSA BAA-1707 Biofilms: […]
the cultures were removed and the dish was washed with 0.9% saline for 2 minutes. […] Images of remaining MRSA biofilms were then taken with a fluorescence microscope. All data were analyzed using Image J software from three

MRSE 35984 [9] = assay: Calgary Biofilm Device (CBD) MBC/MBEC assay; format: cell-based, Staphylococcus epidermidis; conditions: CBD
[10] = Table 3, read-out: MRSA BAA-1707 MIC
[11] = single plate shown as picture, read-out: MIC (µM), MIC Assay against MRSA BAA-1707
[12] = Table 1, three independent experiments
[13] = Table 1, read-out: MIC MRSA BAA-44
[14] = Staphylococcus epidermidis, MRSE, Table 3, read-out: MRSE 35984 MIC
[15] = Staphylococcus aureus, Fe(II) co-treatment plate, lanes without metal, read-out: MIC
[16] = Staphylococcus aureus, Table 2, MRSA BAA-1707, no metal(II) cation added, read-out: MIC
[17] = Staphylococcus aureus, Zn(II) extended plate assay, lanes without metal, read-out: MIC
[18] = Staphylococcus aureus, copper(II) at 200 µM co-treatment, read-out: MIC w/Cu2+
[19] = Staphylococcus aureus, iron(II) at 200 µM co-treatment, read-out: MIC w/Fe2+
[20] = Staphylococcus aureus, magnesium(II) at 200 µM co-treatment, read-out: MIC w/Mg2+
[21] = Staphylococcus aureus, zinc(II) at 200 µM co-treatment, read-out: MIC w/Zn2+
[22] = Staphylococcus aureus, 24 h, CBD, planktonic killing, 24 hours treatment, read-out: MRSA BAA-1707 MBC

With `Oc1c(Br)cc(Br)c2nc3c(Cl)cccc3nc12` [HP 21] the MIC (MRSA BAA-1707 [1]; Table 1, three independent experiments, read-out: MIC MRSA BAA-1707) was 0.05 to 0.3 µM (≈ 0.0194 to 0.117 µg/mL), the MIC (MRSA BAA-1707 [1]; [10]) was 0.08 µM (≈ 0.0311 µg/mL) and the MIC (MRSA BAA-1707 [1]; [11]) was 0.1 µM (≈ 0.0388 µg/mL). The “MIC MRSA BAA-1707” value (MRSA BAA-1707 [1]; [12]) was 0.08^a µM, the MIC (MRSA BAA-44; [13]) was 0.59 µM (≈ 0.229 µg/mL) and the MIC (MRSA-1; Table 1, read-out: MIC MRSA-1) was at most 0.1 µM. It also gave an MIC (MRSA-1; single plate shown as picture, read-out: MIC (µM), MIC Assay Against MRSA-1) of 0.1 µM (≈ 0.0388 µg/mL), an MIC (MRSE 35984 [2]; [14]) of 0.3 µM (≈ 0.117 µg/mL) and an MIC (MRSE 35984 [2]; Staphylococcus epidermidis, MRSE, single plate shown as picture, read-out: MIC (µM), MIC Assay Against MRSE 35984) of 0.2 µM (≈ 0.0777 µg/mL). It also gave an MIC (VRE 700221 [3]; Table 3, read-out: VRE 700221 MIC) of 1.56 µM (≈ 0.606 µg/mL), an MIC (VRE 700221 [3]; single plate shown as picture, read-out: MIC (µM), MIC Assay Against VRE 700221) of 1.56 µM (≈ 0.606 µg/mL) and an MIC (MtB H37Ra) of 50 µM (≈ 19.4 µg/mL). It also gave an IC50 at 24 h [4] of over 100 µM, an MIC (MRSA BAA-1707 [5]; [15]) of 0.1 µM and an MIC (MRSA BAA-1707 [5]; [16]) of 0.1 µM. It also gave an MIC (MRSA BAA-1707 [5]; [17]) of 0.1 µM, an MIC (MRSA BAA-1707 [5]; [18]) of 6.25 µM and an MIC (MRSA BAA-1707 [5]; [19]) of 0.59 µM. The MIC (MRSA BAA-1707 [5]; [20]) was 0.15 µM, the MIC (MRSA BAA-1707 [5]; [21]) was 0.15 µM and the MIC (MRSA BAA-1707 [5]; extended plate assay, 200 µM Zn(II), read-out: MIC (µM) + Zn(II)) was 0.10 µM. The MIC (MRSA BAA-1707 [5]; single plate, 200 µM Fe(II), read-out: MIC (µM) + Fe(II)) was 0.78 µM, the “rate of copper(II) chelation” value (UV-Vis metal(II) binding) was “faster rate than HP 1” and the MBC (MRSA BAA-1707 [6]; [22]) was 6.25 µM (≈ 2.43 µg/mL). The MBC (MRSA BAA-1707 [6]; Staphylococcus aureus, 24 h, supplement page 27, second CBD plate, read-out: MRSA Planktonic Killing MBC) was 6.25 µM (≈ 2.43 µg/mL), the “VRE 700221 MBEC” value (VRE 700221 [7]; biofilm eradication) was 25/25 µM and the MBC (VRE 700221 [7]; Enterococcus, VRE, planktonic killing, read-out: VRE 700221 MBC) was 25 µM (≈ 9.71 µg/mL). It also gave an MIC (four MRSA isolates) of 0.05 to 0.59 µM (≈ 0.0194 to 0.229 µg/mL) and a hemolysis at 1 h, 200 µM [8] of at most 1%.
With `Cc1cccc2nc3c(O)c(Br)cc(Br)c3nc12` [HP 17, 6-methyl-2,4-dibromo-1-hydroxyphenazine] the MIC (MRSA BAA-1707 [1]; [10]) was 0.3 µM (≈ 0.11 µg/mL), the MIC (MRSA BAA-1707 [1]; [11]) was 0.2 µM (≈ 0.0736 µg/mL) and the MIC (MRSA BAA-44; single plate shown as picture, read-out: MIC (µM), MIC Assay Against MRSA BAA-44) was 0.39 µM (≈ 0.144 µg/mL). The MIC (MRSA BAA-44; [13]) was 0.39 µM (≈ 0.144 µg/mL), the MIC (MRSA-1; Table 1, read-out: MIC MRSA-1) was at most 0.1 µM and the MIC (MRSA-2; Staphylococcus aureus, MRSA) was 0.3 µM (≈ 0.11 µg/mL). It also gave an MIC (MRSE 35984 [2]; [14]) of 0.3 µM (≈ 0.11 µg/mL), an MIC (S. epi 12228) of 0.39 µM (≈ 0.144 µg/mL) and an MIC (MtB H37Ra) of 25 µM (≈ 9.2 µg/mL). For the same compound, the IC50 at 24 h [4] was over 100 µM, the MIC (MRSA BAA-1707 [5]; Staphylococcus aureus, Cu(II) co-treatment plate, lanes without metal, read-out: MIC) was 0.2 µM and the MIC (MRSA BAA-1707 [5]; [15]) was 0.39 µM. The MIC (MRSA BAA-1707 [5]; Staphylococcus aureus, Mg(II) co-treatment plate, lanes without metal, read-out: MIC) was 0.2 µM, the MIC (MRSA BAA-1707 [5]; [16]) was 0.3 µM and the MIC (MRSA BAA-1707 [5]; [17]) was 0.2 µM. For the same compound, the MIC (MRSA BAA-1707 [5]; [18]) was 75 µM, the MIC (MRSA BAA-1707 [5]; Staphylococcus aureus, extended plate assay, 200 µM Zn(II), read-out: MIC (µM) + Zn(II)) was 0.05 µM and the MIC (MRSA BAA-1707 [5]; [19]) was 12.5 µM. The MIC (MRSA BAA-1707 [5]; [20]) was 0.3 µM, the MIC (MRSA BAA-1707 [5]; Staphylococcus aureus, single plate, 200 µM Fe(II), read-out: MIC (µM) + Fe(II)) was 12.5 µM and the MIC (MRSA BAA-1707 [5]; Staphylococcus aureus, single plate, 200 µM Mg(II), read-out: MIC (µM) + Mg(II)) was 0.2 µM. For the same compound, the MIC (MRSA BAA-1707 [5]; [21]) was 0.05 µM, the MIC (MRSA BAA-1707 [5]; single plate, 200 µM Cu(II), read-out: MIC (µM) + Cu(II)) was 50 µM and the “rate of copper(II) chelation” value (UV-Vis metal(II) binding) was “faster rate than HP 1”. The “MRSA BAA-1707 MBEC” value (MRSA BAA-1707 [6]; CBD, biofilm eradication, 24 hours treatment) was 6.25/6.25 µM, the “MRSA-1707 Biofilm Eradication MBEC” value (MRSA BAA-1707 [6]; Figure 7A, single CBD plate) was 6.25 µM and the MBC (MRSA BAA-1707 [6]; [22]) was 6.25 µM (≈ 2.3 µg/mL). It also gave an MBC (MRSA BAA-1707 [6]; Staphylococcus aureus, 24 h, supplement page 27, first CBD plate, read-out: MRSA Planktonic Killing MBC) of 6.25 µM (≈ 2.3 µg/mL), an MBC (MRSA BAA-1707 [6]; Staphylococcus aureus, Figure 7A, single CBD plate, read-out: MRSA-1707 Planktonic Eradication MBC) of 6.25 µM (≈ 2.3 µg/mL) and an MIC (four MRSA isolates) of 0.05 to 0.59 µM (≈ 0.0184 to 0.217 µg/mL). For the same compound, the MIC (S. epidermidis) was 0.3 to 0.39 µM (≈ 0.11 to 0.144 µg/mL), the hemolysis at 1 h, 200 µM [8] was 6.7% and the “Live/Dead staining response of established biofilms” value (MRSA-1707 biofilms) was “potent biofilm eradication and clearance response”.
In the case of `c1ccc(CN(CCN(Cc2ccccn2)Cc2ccccn2)Cc2ccccn2)nc1` [TPEN, reference compound], the “MIC MRSA BAA-1707” value (MRSA BAA-1707 [1]; [12]) is reported as 46.9^a µM, the “MRSA BAA-1707 MIC” value (MRSA BAA-1707 [1]; Table 3) is reported as 46.9^a µM and the “MIC MRSA-1” value (MRSA-1; Table 1) is reported as 75^a µM. For the same compound, the MIC (MRSA-2) was 50 µM (≈ 21.2 µg/mL), the MIC (MRSE 35984 [2]; Table 1, read-out: MIC MRSE 35984) was 12.5 µM (≈ 5.31 µg/mL) and the MIC (MRSE 35984 [2]; Table 3, read-out: MRSE 35984 MIC) was 12.5 µM (≈ 5.31 µg/mL). The MIC (MRSA BAA-1707 [5]; Table 2, MRSA BAA-1707, no metal(II) cation added) was 46.9^a µM, the MIC (MRSA BAA-1707 [5]; copper(II) at 200 µM co-treatment, read-out: MIC w/Cu2+) was 500 µM and the MIC (MRSA BAA-1707 [5]; iron(II) at 200 µM co-treatment, read-out: MIC w/Fe2+) was 125 µM. The MIC (MRSA BAA-1707 [5]; magnesium(II) at 200 µM co-treatment, read-out: MIC w/Mg2+) was 62.5 µM, the MIC (MRSA BAA-1707 [5]; zinc(II) at 200 µM co-treatment, read-out: MIC w/Zn2+) was 250 µM and the MBC (MRSA BAA-1707 [6]; CBD, planktonic killing, 24 hours treatment, read-out: MRSA BAA-1707 MBC) was 375 µM (≈ 159 µg/mL). The “MRSA-1707 Biofilm Eradication MBEC” value (MRSA BAA-1707 [6]; Figure 7A, single CBD plate) was over 2000 µM, the MBC (MRSA BAA-1707 [6]; Figure 7A, single CBD plate, read-out: MRSA-1707 Planktonic Eradication MBC) was 250 µM (≈ 106 µg/mL) and the “MRSA Biofilm Eradication MBEC” value (MRSA BAA-1707 [6]; supplement page 27, first CBD plate) was over 2000 µM. For the same compound, the MBC (MRSA BAA-1707 [6]; supplement page 27, first CBD plate, read-out: MRSA Planktonic Killing MBC) was 250 µM (≈ 106 µg/mL), the “MRSE 35984 MBEC” value (MRSE 35984 [9]; biofilm eradication) was over 2000 µM and the MBC (MRSE 35984 [9]; planktonic killing, read-out: MRSE 35984 MBC) was 250 µM (≈ 106 µg/mL). For the same compound, the “Hemolysis at 200 µM (%)” value (human red blood cells) was at most 1%.
